# Measured values taken from EP0812825B1, “PROPENONE DERIVATIVES” (KYOWA HAKKO KOGYO CO., LTD., priority 1995, dated 1997).
# What was measured:
# HeLa S3 cells = assay: HeLa S3 cell growth inhibition test (neutral red staining); format: cell-based; conditions: Homo sapiens; HeLa S3, 72 hours culture with compound
# Method: Test Example 1: HeLa S3 Cell Growth Inhibition Test
# Each 0.1 ml of HeLa S3 cells which had been prepared to 3 x 10^4 cells/ml using a medium consisting of MEM medium, 10% fetal bovine serum, and 2 mM glutamine was distributed in each well of 96 well-microtiter plate.
# HeLa S3 was cultured at 37°C for one night in a CO2 incubator, each 0.05 ml of test compounds which had been appropriately diluted with the culture solution was added thereto, and the mixture was cultured at 37°C for 72 hours in a CO2 incubator. Supernatant was removed, each 0.1 ml of the culture solution containing 0.02% neutral red was added to the residue, the mixture was incubated at 37°C for one hour in a CO2 incubator, and the cells were stained. Supernatant was removed and the residue was washed once with physiological saline. Then, the pigment was extracted with 0.001 N hydrochloric acid/30% ethanol and the absorbance at 550 nm was measured by a microplatereader. A concentration of the test compound (IC50) at which the growth of cell is inhibited by 50% was calculated by comparing the absorbance of non-treated cells and that of cells treated with a predetermined concentration of the test compound.
# [1] = system: anti-Trinitrophenol (TNP) Antibody Production; assay: Effect against anti-trinitrophenol (TNP) antibody production (serum ELISA); format: in vivo, BALB/c mice
# Method: Mice which were used for the effect against delayed type hypersensitivity footpad reaction were bled, the sera were separated by centrifugation at 3000rpm at 4°C for 10 minutes, and then anti-TNP antibody titer was measured. For measuring anti-TNP antibody, enzyme-linked immunosorbent assay (ELISA) was used. […] Peroxidase labeled anti-mouse IgG+IgA+IgM (American Qualex International, Inc.) was added and bound to anti-TNP antibody in culture supernatant which was bound to plate. Orthophenylenediamine (Wako Pure Chemical Industries, Ltd) solution containing hydrogen peroxide (Wako Pure Chemical Industries, Ltd) was added and enzyme reaction was started. After sufficient coloring, coloring reaction was stopped by addition of 10% […] (Wako Pure Chemical Industries, Ltd) and absorbance at 490nm was measured by immunoreader (Intermed Japan, NJ-2000).
# Suppression rate of anti-TNP antibody production by test compound was calculated according to the following equation.
# [2] = system: Delayed Type Hypersensitivity Footpad Reaction; assay: Effect against delayed type hypersensitivity footpad reaction (TNBS-immunized mice); format: in vivo, BALB/c mice
# Method: Male BALB/c mice (8-weeks-old, Charles River Japan Inc.) were immunized by intradermally injection in the dorsal flank of 100 µl of 10mM 2,4,6-trinitrobenzenesulfonic acid (TNBS) in saline. Five mice were used in each group, that is, control group [0.5% methylcellulose containing 10% dimethyl sulfoxide (DMSO)-administered group], Cyclosporine A (Sandoz)-administered group, and test compound-administered group wherein a determined concentration of test compound suspended in 0.5% methylcellulose containing 10% DMSO was administered. Each of Cyclosporine A and test compound was intraperitoneally administered 30 minutes before and once a day for 4 days after immunization. 50 µl of 10mM TNBS was intradermally injected as a challenging antigen 5 days after immunization when antigen-sensitization was developed. Thickness of both footpads of each animal in each dose of test compound-administered group was measured with a dial thickness gauge 18 hours after antigen challenge, and the value of the difference in thickness of left and right footpad (T) was determined. On the other hand, thickness of both footpads in control group was measured, and the value of the difference in thickness of left and right footpad (C) was determined. Suppression rate in footpad reaction was calculated as [(C - T)/C] x 100.
# T-Cell Proliferation = assay: T-cell proliferation inhibitory test using mouse mixed lymphocyte reaction (MLR), [3H]-thymidine incorporation; format: cell-based; conditions: 72 hours
# Method: Test Example 5: T-Cell Proliferation Inhibitory Test Using Mouse Mixed Lymphocyte Reaction (MLR)
# Spleen was sterilly removed from C3H/He mouse and single cell suspension was prepared. This suspension was irradiated with 2000R X-ray and adjusted into 8 x 10^6 cells/ml. 50 µl of lymph-node cells of BALB/c mouse (containing 2 x 10^5 cells), 50 µl of X-ray irradiated spleen cell suspension of C3H/He mouse (containing 4 x 10^5 cells), and 50 µl of determined concentration of test compound solution were added in each well of 96 well microtiter plate and cultured at 37°C for 72 hours in the CO2 incubator. Eight hours before the end of culture, [^3H]-Thymidine (1.85 KBq) was added. At the end of culture, cells were trapped. on the filter paper by cell harvester and dried. Toluene type scintillator was added and radioactivity of [^3H]-Thymidine incorporated into cells was measured by liquid scintillation counter.
# Suppression rate of T-cell proliferation was calculated according to the following equation. Suppression rate (%) =((Radioactivity in control group) - (Radioactivity in test group))/((Radioactivity in control group) - (Radioactivity in X-ray irradiated C3H/He+Radioactivity in Balb/c))× 100 [formula]
# [3] = dose 3.0 mg/kg x 5, intraperitoneally
# [4] = dose 10 mg/kg x 5, intraperitoneally
Structure (SMILES),IC50 (HeLa S3 cells),other results
"CO/C(=C\c1c[nH]c2ccccc12)C(=O)c1cc(OC)c(OC)c(OC)c1 [Compound 1, (Z)-3-(Indol-3-yl)-2-methoxy-1-(3,4,5-trimethoxyphenyl)-2-propen-1-one]",2.4 nM,
"CCO/C(=C\c1c[nH]c2ccccc12)C(=O)c1cc(OC)c(OC)c(OC)c1 [Compound 2, (Z)-2-Ethoxy-3-(indol-3-yl)-1-(3,4,5-trimethoxyphenyl)-2-propen-1-one]",2.5 nM,
"CCCO/C(=C\c1c[nH]c2ccccc12)C(=O)c1cc(OC)c(OC)c(OC)c1 [Compound 3, (Z)-3-(Indol-3-yl)-2-propyloxy-1-(3,4,5-trimethoxyphenyl)-2-propen-1-one]",13 nM,
"COc1cc(C(=O)/C(=C/c2c[nH]c3ccccc23)OC(C)C)cc(OC)c1OC [Compound 4, (Z)-2-Isopropyloxy-3-(indol-3-yl)-1-(3,4,5-trimethoxyphenyl)-2-propen-1-one]",3.7 nM,
"COc1cc(C(=O)/C(=C/c2c[nH]c3ccccc23)Oc2ccccc2C)cc(OC)c1OC [Compound 7, (Z)-3-(Indol-3-yl)-2-(2-methylphenoxy)-1-(3,4,5-trimethoxyphenyl)-2-propen-1-one]",68 nM,
"COc1cc(C(=O)/C(=C/c2c[nH]c3ccccc23)Oc2ccc(Br)cc2)cc(OC)c1OC [Compound 8, (Z)-2-(4-Bromophenoxy)-3-(indol-3-yl)-1-(3,4,5-trimethoxyphenyl)-2-propen-1-one]",62 nM,
"COc1cc(C(=O)/C(=C/c2c[nH]c3ccccc23)SC)cc(OC)c1OC [Compound 9, (Z)-3-(Indol-3-yl)-2-methylthio-1-(3,4,5-trimethoxyphenyl)-2-propen-1-one]",2.2 nM,
"COc1cc(C(=O)/C(=C/c2c[nH]c3cc(C)ccc23)SCCO)cc(OC)c1OC [Compound 13, (Z)-2-(2-Hydroxyethylthio)-3-(6-methylindol-3-yl)-1-(3,4,5-trimethoxyphenyl)-2-propen-1-one]",2.5 nM,
"COC(=O)CS/C(=C\c1c[nH]c2ccccc12)C(=O)c1cc(OC)c(OC)c(OC)c1 [Compound 16, (Z)-3-(Indol-3-yl)-2-methoxycarbonylmethylthio-1-(3,4,5-trimethoxyphenyl)-2-propen-1-one]",4.7 nM,
"COc1cc(C(=O)/C(=C/c2c[nH]c3ccccc23)CCC(O)CO)cc(OC)c1OC (stereo not drawn) [Compound 19, (E)-2-(3,4-Dihydroxybutyl)-3-(indol-3-yl)-1-(3,4,5-trimethoxyphenyl)-2-propen-1-one]",2.1 nM,
"COc1cc(C(=O)/C(=C/c2c[nH]c3cc(C)ccc23)CCC(O)CO)cc(OC)c1OC (stereo not drawn) [Compound 20, (E)-2-(3,4-Dihydroxybutyl)-3-(6-methylindol-3-yl)-1-(3,4,5-trimethoxyphenyl)-2-propen-1-one]",5.6 nM,
"COc1cc(C(=O)/C(=C/c2c[nH]c3ccccc23)SCC(O)CO)cc(OC)c1OC (stereo not drawn) [Compound 21, (Z)-2-(2,3-Dihydroxypropylthio)-3-(indol-3-yl)-1-(3,4,5-trimethoxyphenyl)-2-propen-1-one]",4.8 nM,"Suppression rate(%) [1, 3]: 15 (3.0) %; Suppression rate(%) [1, 4]: 57 (10) %; Suppression rate(%) [2, 3]: 8.5 (3.0) %; Suppression rate(%) [2, 4]: 69 (10) %; inhibition at 0.1 µM (T-Cell Proliferation; concentration 10^-7 M, read-out: Suppression rate(%)): 107%; inhibition at 0.01 µM (T-Cell Proliferation; concentration 10^-8 M, read-out: Suppression rate(%)): 106%; inhibition at 0.001 µM (T-Cell Proliferation; concentration 10^-9 M, read-out: Suppression rate(%) (converted)): 7.8%"
"COc1cc(C(=O)/C(=C/c2cn(C)c3ccccc23)SCC(O)CO)cc(OC)c1OC (stereo not drawn) [Compound 22, (Z)-2-(2,3-Dihydroxypropylthio)-3-(1-methylindol-3-yl)-1-(3,4,5-trimethoxyphenyl)-2-propen-1-one]",20 nM,
"COc1cc(C(=O)/C(=C/c2c[nH]c3cccc(C)c23)SCC(O)CO)cc(OC)c1OC (stereo not drawn) [Compound 23, (Z)-2-(2,3-Dihydroxypropylthio)-3-(4-methylindol-3-yl)-1-(3,4,5-trimethoxyphenyl)-2-propen-1-one]",19 nM,
"COc1cc(C(=O)/C(=C/c2c[nH]c3cccc(Cl)c23)SCC(O)CO)cc(OC)c1OC (stereo not drawn) [Compound 24, (Z)-3-(4-Chloroindol-3-yl)-2-(2,3-dihydroxypropylthio)-1-(3,4,5-trimethoxyphenyl)-2-propen-1-one]",15 nM,
"COc1cc(C(=O)/C(=C/c2c[nH]c3ccc(F)cc23)SCC(O)CO)cc(OC)c1OC (stereo not drawn) [Compound 27, (Z)-2-(2,3-Dihydroxypropylthio)-3-(5-fluoroindol-3-yl)-1-(3,4,5-trimethoxyphenyl)-2-propen-1-one]",6.3 nM,
"COc1cc(C(=O)/C(=C/c2c[nH]c3cc(C)ccc23)SCC(O)CO)cc(OC)c1OC (stereo not drawn) [Compound 28, (Z)-2-(2,3-Dihydroxypropylthio)-3-(6-methylindol-3-yl)-1-(3,4,5-trimethoxyphenyl)-2-propen-1-one]",6.3 nM,
"CCc1ccc2c(/C=C(\SCC(O)CO)C(=O)c3cc(OC)c(OC)c(OC)c3)c[nH]c2c1 (stereo not drawn) [Compound 29, (Z)-2-(2,3-Dihydroxypropylthio)-3-(6-ethylindol-3-yl)-1-(3,4,5-trimethoxyphenyl)-2-propen-1-one]",18 nM,
"COc1cc(C(=O)/C(=C/c2c[nH]c3cc(Cl)ccc23)SCC(O)CO)cc(OC)c1OC (stereo not drawn) [Compound 31, (Z)-3-(6-Chloroindol-3-yl)-2-(2,3-dihydroxypropylthio)-1-(3,4,5-trimethoxyphenyl)-2-propen-1-one]",7.2 nM,
"COc1cc(C(=O)/C(=C/c2c[nH]c3cc(F)ccc23)SCC(O)CO)cc(OC)c1OC (stereo not drawn) [Compound 32, (Z)-2-(2,3-Dihydroxypropylthio)-3-(6-fluoroindol-3-yl)-1-(3,4,5-trimethoxyphenyl)-2-propen-1-one]",5.9 nM,
"COc1cc(C(=O)C(=Cc2c[nH]c3ccccc23)SCC(O)C(O)CO)cc(OC)c1OC [Compound 35, 3-(Indol-3-yl)-2-[(2S),(3R)-2,3,4-trihydroxybutylthio]-1-(3,4,5-trimethoxyphenyl)-2-propen-1-one]",4.4 nM,
"COc1cc(C(=O)C(=Cc2c[nH]c3cc(C)ccc23)SC[C@@H](O)[C@H](O)CO)cc(OC)c1OC [Compound 36, 3-(6-Methylindol-3-yl)-2-[(2S),(3R)-2,3,4-trihydroxybutylthio]-1-(3,4,5-trimethoxyphenyl)-2-propen-1-one]",5.3 nM,
"COc1cc(C(=O)C(=Cc2c[nH]c3cc(C)ccc23)SC[C@H](O)[C@@H](O)CO)cc(OC)c1OC [Compound 37, 3-(6-Methylindol-3-yl)-2-[(2R),(3S)-2,3,4-trihydroxybutylthio)-1-(3,4,5-trimethoxyphenyl)-2-propen-1-one]",7.1 nM,
